Earlier results on one substance are cited in patent US20250134097A1, “PERSISTENT SANITIZER” (priority 2020, published 2025).

One series deals with Adenovirus. The conditions noted are these: in vitro; concentration-dependent; includes non-enveloped virus.
The next series deals with microbes. As to conditions: benzalkonium chloride at 0.1-0.2%.

As to Benzalkonium chloride, the antiviral activity entry with Adenovirus is “some antiviral activity including non-enveloped activity”. Moreover, the antimicrobial activity entry in the series on microbes is “Broad antimicrobial activity”.
